The record followed here is patent US20250186321A1, “FORMULATION USING AMINO ACID AND CARBOXYLIC ACID, ORGANIC SALT, AND COMPOSITION COMPRISING SAME AND USE THEREOF” (MIYOSHI OIL & FAT CO., LTD., priority 2021, published 2025).

A short description of the first data set: Appearance of formulation (state at 25° C.). The data set is classed as physicochemical. The following applies: 25° C.; components (A) and (B) at the compounding molar ratio shown. As for the experimental part:
Formulations 1 to 427 shown in Tables 1A to 1D were prepared by the above-described method using the components (A) and (B) at the compounding molar ratios shown in the tables, and their states at 25° C. were observed.
With `NCCCC[C@H](N)C(=O)O.O=CO` [Formulation 1], the “state at 25° C.” value was “Solid”.

With `CC(=O)O.NCCCC[C@H](N)C(=O)O` [Formulation 2], the “state at 25° C.” value is recorded as “Solid”.

Consider `CCC(=O)O.NCCCC[C@H](N)C(=O)O` [Formulation 3], for which the “state at 25° C.” value is “Solid”.

As to `CCCC(=O)O.NCCCC[C@H](N)C(=O)O` [Formulation 5], the “state at 25° C.” value was “Solid”.

As for `CCCCC/C=C\C/C=C\CCCCCCCC(=O)O.NCCCC[C@H](N)C(=O)O` [Formulation 8], the “state at 25° C.” value was “Solid”.

For the compound `CC(O)C(=O)O.NCCCCC(N)C(=O)O` (stereo not drawn) [Formulation 10], the “state at 25° C.” value is given as “Solid”.

In the case of `NCCCC[C@H](N)C(=O)O.O=C(O)CCCCC(=O)O` [Formulation 11], the “state at 25° C.” value is reported as “Solid”.

For the compound `NCCCC[C@H](N)C(=O)O.O=C(O)CCC(=O)O` [Formulation 12], the “state at 25° C.” value was “Solid”.

Take `NCCCC[C@H](N)C(=O)O.N[C@@H](CCC(=O)O)C(=O)O` [Formulation 13]: the “state at 25° C.” value is “Solid”.

As to `NCCCC[C@H](N)C(=O)O.O=C(O)/C=C/C(=O)O` [Formulation 14], the “state at 25° C.” value is “Liquid”.

As to `NCCCC[C@H](N)C(=O)O.O=C(O)C[C@H](O)C(=O)O` [Formulation 15], the “state at 25° C.” value is “Solid”.

Regarding `NCCCC[C@H](N)C(=O)O.O=C(O)C(O)C(O)C(=O)O` [Formulation 17], the “state at 25° C.” value is reported as “Solid”.

As to `NCCCC[C@H](N)C(=O)O.O=C(O)c1ccccc1` [Formulation 18], the “state at 25° C.” value was “Solid”.

Take `NCCCC[C@H](N)C(=O)O.O=C(O)/C=C/c1ccccc1` [Formulation 19]: the “state at 25° C.” value is “Solid”.

For `NCCCC[C@H](N)C(=O)O.O=C1O[C@H]([C@@H](O)CO)C(O)=C1O` [Formulation 20], the “state at 25° C.” value was “Solid”.

For the compound `NCCCC[C@H](N)C(=O)O.O=C1O[C@H]([C@H](O)CO)C(O)=C1O` [Formulation 21], the “state at 25° C.” value was “Liquid”.

In the case of `NCCCC[C@H](N)C(=O)O.O=CO.O=CO` [Formulation 22], the “state at 25° C.” value was “Solid”.

For `CC(=O)O.CC(=O)O.NCCCC[C@H](N)C(=O)O` [Formulation 23], the “state at 25° C.” value was “Solid”.

Regarding `CCC(=O)O.CCC(=O)O.NCCCC[C@H](N)C(=O)O` [Formulation 24], the “state at 25° C.” value is given as “Solid”.

In the case of `CCCCCC(=O)O.CCCCCC(=O)O.NCCCC[C@H](N)C(=O)O` [Formulation 25], the “state at 25° C.” value is on record as “Solid”.

Consider `CCCC(=O)O.CCCC(=O)O.NCCCC[C@H](N)C(=O)O` [Formulation 26], for which the “state at 25° C.” value is given as “Solid”.

Take `CCCCCCCC/C=C\CCCCCCCC(=O)O.CCCCCCCC/C=C\CCCCCCCC(=O)O.NCCCC[C@H](N)C(=O)O` [Formulation 28]: the “state at 25° C.” value was “Solid”.

Take `CCCCC/C=C\C/C=C\CCCCCCCC(=O)O.CCCCC/C=C\C/C=C\CCCCCCCC(=O)O.NCCCC[C@H](N)C(=O)O` [Formulation 29]: the “state at 25° C.” value is listed as “Solid”.

For `CC(O)C(=O)O.CC(O)C(=O)O.NCCCC[C@H](N)C(=O)O` [Formulation 31], the “state at 25° C.” value was “Solid”.

For `NCCCC[C@H](N)C(=O)O.O=C(O)CCCCC(=O)O.O=C(O)CCCCC(=O)O` [Formulation 32], the “state at 25° C.” value was “Solid”.

Consider `NCCCC[C@H](N)C(=O)O.O=C(O)CCC(=O)O.O=C(O)CCC(=O)O` [Formulation 33], for which the “state at 25° C.” value is reported as “Solid”.

As to `NCCCC[C@H](N)C(=O)O.N[C@@H](CCC(=O)O)C(=O)O.N[C@@H](CCC(=O)O)C(=O)O` [Formulation 34], the “state at 25° C.” value is “Solid”.

On to `NCCCC[C@H](N)C(=O)O.O=C(O)/C=C/C(=O)O.O=C(O)/C=C/C(=O)O` [Formulation 35], for which the “state at 25° C.” value is on record as “Solid”.

Turning to `NCCCC[C@H](N)C(=O)O.O=C(O)C[C@H](O)C(=O)O.O=C(O)C[C@H](O)C(=O)O` [Formulation 36], the “state at 25° C.” value is given as “Solid”.

As for `NCCCC[C@H](N)C(=O)O.O=C(O)C(O)C(O)C(=O)O.O=C(O)C(O)C(O)C(=O)O` [Formulation 38], the “state at 25° C.” value is “Solid”.

In the case of `NCCCC[C@H](N)C(=O)O.O=C(O)c1ccccc1.O=C(O)c1ccccc1` [Formulation 39], the “state at 25° C.” value is “Solid”.

For the compound `NCCCCC(N)C(=O)O.O=C(O)C=Cc1ccccc1.O=C(O)C=Cc1ccccc1` [Formulation 40], the “state at 25° C.” value was “Solid”.

Regarding `NCCCC[C@H](N)C(=O)O.O=C1O[C@H]([C@@H](O)CO)C(O)=C1O.O=C1O[C@H]([C@@H](O)CO)C(O)=C1O` [Formulation 41], the “state at 25° C.” value is on record as “Solid”.

Consider `NCCCC[C@H](N)C(=O)O.O=C1O[C@H]([C@H](O)CO)C(O)=C1O.O=C1O[C@H]([C@H](O)CO)C(O)=C1O` [Formulation 42], for which the “state at 25° C.” value was “Solid”.

With `N=C(N)NCCC[C@H](N)C(=O)O.O=CO` [Formulation 43], the “state at 25° C.” value was “Solid”.

Take `CC(=O)O.N=C(N)NCCC[C@H](N)C(=O)O` [Formulation 44]: the “state at 25° C.” value is “Solid”.

Take `CCC(=O)O.N=C(N)NCCC[C@H](N)C(=O)O` [Formulation 45]: the “state at 25° C.” value is “Solid”.

As for `CCCCCC(=O)O.N=C(N)NCCC[C@H](N)C(=O)O` [Formulation 46], the “state at 25° C.” value is recorded as “Solid”.

As to `CCCC(=O)O.N=C(N)NCCC[C@H](N)C(=O)O` [Formulation 47], the “state at 25° C.” value is on record as “Solid”.

In the case of `N=C(N)NCCC[C@H](N)C(=O)O.O=C(O)CCCCC(=O)O` [Formulation 53], the “state at 25° C.” value is reported as “Solid”.

As for `N=C(N)NCCC[C@H](N)C(=O)O.O=C(O)CCC(=O)O` [Formulation 54], the “state at 25° C.” value was “Solid”.

For the compound `N=C(N)NCCC[C@H](N)C(=O)O.N[C@@H](CCC(=O)O)C(=O)O` [Formulation 55], the “state at 25° C.” value is listed as “Solid”.

Take `N=C(N)NCCC[C@H](N)C(=O)O.O=C(O)/C=C/C(=O)O` [Formulation 56]: the “state at 25° C.” value is given as “Solid”.

For the compound `N=C(N)NCCC[C@H](N)C(=O)O.O=C(O)/C=C/c1ccccc1` [Formulation 61], the “state at 25° C.” value is listed as “Solid”.

Take `N=C(N)NCCCC(N)C(=O)O.O=CO.O=CO` (stereo not drawn) [Formulation 64]: the “state at 25° C.” value is given as “Solid”.

Consider `CC(=O)O.CC(=O)O.N=C(N)NCCC[C@H](N)C(=O)O` [Formulation 65], for which the “state at 25° C.” value was “Solid”.

As to `CCC(=O)O.CCC(=O)O.N=C(N)NCCC[C@H](N)C(=O)O` [Formulation 66], the “state at 25° C.” value is “Solid”.

For the compound `CCCCCC(=O)O.CCCCCC(=O)O.N=C(N)NCCC[C@H](N)C(=O)O` [Formulation 67], the “state at 25° C.” value is “Solid”.

For the compound `CCCC(=O)O.CCCC(=O)O.N=C(N)NCCC[C@H](N)C(=O)O` [Formulation 68], the “state at 25° C.” value is “Solid”.

With `N=C(N)NCCC[C@H](N)C(=O)O.O=C(O)CCCCC(=O)O.O=C(O)CCCCC(=O)O` [Formulation 74], the “state at 25° C.” value is on record as “Solid”.

As for `N=C(N)NCCC[C@H](N)C(=O)O.O=C(O)CCC(=O)O.O=C(O)CCC(=O)O` [Formulation 75], the “state at 25° C.” value is given as “Solid”.

Regarding `N=C(N)NCCC[C@H](N)C(=O)O.N[C@@H](CCC(=O)O)C(=O)O.N[C@@H](CCC(=O)O)C(=O)O` [Formulation 76], the “state at 25° C.” value is given as “Solid”.

As for `N=C(N)NCCC[C@H](N)C(=O)O.O=C(O)/C=C/C(=O)O.O=C(O)/C=C/C(=O)O` [Formulation 77], the “state at 25° C.” value was “Solid”.

As for `N=C(N)NCCC[C@H](N)C(=O)O.O=C(O)c1ccccc1.O=C(O)c1ccccc1` [Formulation 81], the “state at 25° C.” value is reported as “Solid”.

As for `N=C(N)NCCCC(N)C(=O)O.O=C(O)C=Cc1ccccc1.O=C(O)C=Cc1ccccc1` (stereo not drawn) [Formulation 82], the “state at 25° C.” value is “Solid”.

Turning to `N=C(N)NCCC[C@H](N)C(=O)O.O=C1O[C@H]([C@@H](O)CO)C(O)=C1O.O=C1O[C@H]([C@@H](O)CO)C(O)=C1O` [Formulation 83], the “state at 25° C.” value is “Solid”.

Take `N[C@@H](Cc1c[nH]cn1)C(=O)O.O=CO` [Formulation 85]: the “state at 25° C.” value is “Solid”.

As for `CC(=O)O.N[C@@H](Cc1c[nH]cn1)C(=O)O` [Formulation 86], the “state at 25° C.” value is on record as “Solid”.

Take `CCC(=O)O.N[C@@H](Cc1c[nH]cn1)C(=O)O` [Formulation 87]: the “state at 25° C.” value was “Solid”.

`CCCCCC(=O)O.N[C@@H](Cc1c[nH]cn1)C(=O)O` [Formulation 88]: the “state at 25° C.” value is on record as “Solid”.

For `CCCC(=O)O.N[C@@H](Cc1c[nH]cn1)C(=O)O` [Formulation 89], the “state at 25° C.” value was “Solid”.

On to `CCCCCCCC/C=C\CCCCCCCC(=O)O.N[C@@H](Cc1c[nH]cn1)C(=O)O` [Formulation 91], for which the “state at 25° C.” value was “Solid”.

`CCCCC/C=C\C/C=C\CCCCCCCC(=O)O.N[C@@H](Cc1c[nH]cn1)C(=O)O` [Formulation 92]: the “state at 25° C.” value is “Solid”.

In the case of `CC(O)C(=O)O.N[C@@H](Cc1cnc[nH]1)C(=O)O` [Formulation 94], the “state at 25° C.” value is “Solid”.

Turning to `N[C@@H](Cc1c[nH]cn1)C(=O)O.O=C(O)CCCCC(=O)O` [Formulation 95], the “state at 25° C.” value is on record as “Solid”.

Take `N[C@@H](Cc1c[nH]cn1)C(=O)O.O=C(O)CCC(=O)O` [Formulation 96]: the “state at 25° C.” value was “Solid”.

In the case of `N[C@@H](CCC(=O)O)C(=O)O.N[C@@H](Cc1c[nH]cn1)C(=O)O` [Formulation 97], the “state at 25° C.” value is recorded as “Solid”.

In the case of `N[C@@H](Cc1c[nH]cn1)C(=O)O.O=C(O)/C=C/C(=O)O` [Formulation 98], the “state at 25° C.” value is given as “Solid”.

As for `N[C@@H](Cc1cnc[nH]1)C(=O)O.O=C(O)C[C@H](O)C(=O)O` [Formulation 99], the “state at 25° C.” value is “Solid”.

Consider `N[C@@H](Cc1c[nH]cn1)C(=O)O.O=C(O)C(O)C(O)C(=O)O` [Formulation 101], for which the “state at 25° C.” value is listed as “Solid”.

With `N[C@@H](Cc1c[nH]cn1)C(=O)O.O=C(O)c1ccccc1` [Formulation 102], the “state at 25° C.” value is listed as “Solid”.

The data set is the same for the next values; noted with them: Tables 1C-1 to 1D; compounding molar ratio (Component (A):Component (B)) 1:1.
`NCCCC[C@H](N)C(=O)O.N[C@@H](CCC(=O)O)C(=O)O.N[C@@H](CCC(=O)O)C(=O)O` [Formulation 34]: the “state at 25° C.” value is on record as “Solid”.
